Patent publication US8877809B2, “Compositions and methods for treating macular degeneration” (The Trustees of Columbia University in the City of New York, priority 2007, dated 2014)
“Also recorded” adds a separate entry of the source. Like-named read-outs stand apart in the source and are kept apart here. Each block holds one compound with its values, some of them ahead of it.

Key:
users = settings: cited from earlier work
ABCR knockout mice = settings: cited from earlier work
[1] = mouse, in vivo; cited from earlier work
ABCR−/− mice [2] = assay: A2E-lipofuscin in eyecups of ABCR-/- mice after 3-month diet, HPLC; type: in vivo; settings: diet with 20,000 I.U./kg for 3 months, from 2 months of age; HPLC at 445 nm
Method: C20-D3-all-trans-retinol acetate was prepared according to the literature procedure (47) and was administered to ABCR^−/− mice (48, 49) in order to measure its ability to lead to lipofuscin compared to that of all-trans-retinol acetate. Eight 2-month old, ABCR^−/− mice raised on a standard rodent diet were then fed a diet containing 20,000 I.U./kg of either C20-D3-all-trans-retinol acetate or all-trans-retinol acetate for 3 months.
At the end of the […] period, the eyes were dissected, eyecups pooled into groups of six and homogenated with 80 μL ethanol. The homogenate was centrifuged at 13000 rpm for 5 min and 30 μL of the supernatant was drawn off and analyzed for A2E-lipofuscin by HPLC. A2E-lipofuscin was measured at 445 nm. […] This percentage of A2E reduction is on the same order of magnitude observed in similar studies in ABCR^−/− mice with the visual cycle antagonist TDH, TDT, Ret-NH2, 13-cis-retinoic, acid and fenretinide. However, in this example A2E reduction is achieved with doses of C20-D3-all-trans-retinol acetate that are 11- to 40-times less.

ABCR−/− mice [3] = assay: Electron microscopy of RPE lipofuscin deposits in ABCR-/- mice raised exclusively on the diet; type: in vivo; settings: 5.5-6 month old mice raised only on the diet
Description: Due to the uncertainty in distinguishing lipofuscin from melanin bodies. Comparisons were made between the numbers of all dark, electron dense bodies found in the RPE between mice on the retinol acetate diet vs. those on the C20-D3-all-trans-retinol acetate diet. In addition to the electron dense lipofuscin and melanin bodies, RPE phagosomes, mitochondria, and lipid droplets are also present but were ultrastructurally distinct.
In order to measure the amount lipofuscin granules in the eyes of the above mice on a normal diet vs. the diet containing C20D3-all-trans-retinol acetate, eyecups from both groups of mice (2 from each group) were evaluated by electron microscopy.

ABCR−/− mice [4] = assay: Extractable lipofuscin pigments in eyecups of ABCR-/- mice raised exclusively on the diet, HPLC; type: in vivo; settings: 5.5-6 month old mice raised only on the diet, offspring of mothers on the same diet
Method: On the other hand, lipofuscin pigments were undetectable in mice raised on the C20-D3-all-trans-retinol acetate diet.
As in Example 4, two groups of four ABCR^−/− mice where raised either on diets containing C20-D3-all-trans-retinol acetate or all-trans-retinol acetate. However, in this example the mice were offspring of mothers on the same diet, and thus where raised only on their respective vitamin A analogs. At 5.5-6 months of age the mice were sacrificed and the eyecups were analyzed for lipofuscin pigments as described in Example 4. The results are shown FIG. 5.

[5] = In vitro A2E formation from retinal, ethanolamine and acetic acid, followed by HPLC; settings: mass spectrometry of the reaction mixture after 50 hours
CD-1 (ICR) mice = assay: A2E-lipofuscin in eyes of CD-1 (ICR) mice after IP retinal dosing, HPLC; type: in vivo; settings: 1.5 mg IP bi-weekly for 6 weeks; HPLC at 445 nm
Method: C20-D3-all-trans-retinal was administered to mice in order to measure its ability to form A2E in the eye compared to all-trans-retinal. […], 8-week old, CD-1 (ICR) mice (from Charles River, Wilmington, Mass.) were divided up into two groups of five and administered 1.5 mg of ether all-trans-retinal or C20-D3-all-trans-retinal by intraperitoneal injection (IP) injection in a 10% solution of Tween-20 in saline bi-weekly for 6 weeks. At the end of this six-week period, each mouse was given a total of 60,000 I.U.(18 mg) or about 28-times the original amount of vitamin A in the mouse's body. Massive dosing with C20-D3-all-trans-retinal quickly replaces normal vitamin A stores with the C20-D3-analog. And, the injected retinal rapidly accumulates in the eye (rod outer segments), where at high enough concentrations it will react to form lipofuscin pigments. This is similar to the accumulation of all-trans-retinal in the ABCR^−/− mice and in patents with Stargardt's disease.
At the end of the six week period, the eyes were dissected, the retinas and eyecups pooled into groups of 4 or 5, and homogenated with 50 μL ethanol. The homogenate was centrifuged at 13,000 rpm for 5 minutes and 40 μL of the supernatant was drawn off and analyzed for A2E-lipofuscin by HPLC. Retinol and retinol esters were analyzed at 325 nm and A2E-lipofuscin was measured at 445 nm.

CD IGS rats = assay: A2E-lipofuscin in wild-type CD IGS rats after 8 weeks of IP retinal dosing, HPLC; type: in vivo; settings: for Total A2E-lipofuscin versus retinal group (FIG. 7A, in words): C20-D3-retinal alone, Fenretinide or TDH given with retinal; for Less A2E-lipofuscin compared to animals administered only all-trans-retinal: all-trans-retinal 3 mg IP for 8 weeks plus drug at roughly 1.5 mg/day/animal in drinking water
Method: Animals treated with retinal had the greatest amount of A2E-lipofuscin (normalized to 100%).
45-50 day old, female, CD IGS rats (Charles River, Wilmington, Mass.) were divided up into four groups of three. Three of these groups were administered all-trans-retinal and the one group was given C20-D3-all-trans-retinal (IP injection in a 10% solution of Tween-20 in saline) at 3 mg, bi- or tri-weekly for 8 weeks (20, 3 mg injections total). Thus, at the end of the 8-week period the animals received roughly 20 times their original stores of vitamin A, as retinal or C20-D3-all-trans-retinal. Massive dosing with C20-D3-all-trans-retinal quickly replaces normal vitamin A stores with the C20-D3-analog. Of the three groups administered all-trans-retinal, one group was given Fenretinide (50) and another TDH (23), at doses of roughly 1.5 mg/day/animal (both supplied in the drinking water emulsified with 1 g/L of Nu-rice (RIBUS, Inc, St. Louis, Mo.)).
At the end of the 8 weeks, RPE, A2E-lipofuscin was evaluated in each of the four groups by HPLC as described in Example 3 and in FIG. 7. A2E-lipofuscin pigments were greatest in the animals receiving all-trans-retinal (the control group).

[6] = In vitro A2E formation from C20-fluorinated retinal, monitored by HPLC; settings: C20 hydrogens replaced by fluorine; disappearance of retinal and absence of fluorinated A2E by HPLC
Description: In the present invention, when the C20 hydrogens of all-trans-retinoids are replaced by fluorine atoms (F3), the formation of A2E is eliminated, as measured by monitoring the disappearance of C20-F3-all-trans-retinal and the absence of the corresponding fluorinated A2E by HPLC. A2E and the ATR-dimer are believed to be formed in vivo by a multi-step reaction sequence involving two molecules of all-trans-retinal, as shown in FIG. 2. In the first step, all-trans-retinal condenses with a biological amine to form the imine. This imine is then thought to undergo a hydrogen shift involving a hydrogen atom at carbon C20 (step 2). Subsequent reaction (step 3) with another molecule of retinal either by 1,2- or 1,4-addition followed by cyclizations (step 4) yields A2E or ATR-dimer precursors, respectively. A2E is subsequently formed after spontaneous oxidation in air, and ATR dimer, after elimination (step 4).
It has been shown that replacing certain C—H bonds with C—F bonds in retinal (i.e., C20-F1-3-retinal) hampers the reactivity of all-trans-retinal, and, thus slows or eliminates the formation of A2E in vitro. By replacing hydrogen atoms at C20 with fluorine, the hydrogen shift step is blocked. Accordingly, C20-F1-3-retinal is expected to appreciably slow A2E and ATR-dimer biosynthesis.

patients [7] = settings: oral 600 or 900 mg/m2 bid in 6-week cycles, cited from earlier work
patients [8] = settings: 200 mg/day for five years, 1,432 patients; cited from earlier work
[9] = 2-month-old ABCR knockout mice, 50 mg/kg bi-weekly for two months

Compound: CC1=C(/C=C/C(C)=C/C=C/C(C)=C\C(=O)O)C(C)(C)CCC1 [13 cis-retinoic acid]
Share of users with back pain, muscle and joint pain, allergic reaction, dizziness, hair loss, dry eyes, decreased night vision, low blood counts and others (users; in vivo): 10-29%
Share of users with headache, fever, dry skin, dry mucous membranes, bone pain, nausea and vomiting, rash, mouth sores, itching, sweating, eyesight changes (users; larger doses used to treat cancer): more than 30%
Lipofuscin formation in the RPE cell layer judged by electron microscopy (ABCR knockout mice; 2-month-old ABCR knockout mice, 20 mg/kg/day for two months): decrease in lipofuscin formation
Decrease in A2E formation compared to control ABCR knockout mice (ABCR knockout mice; 3-month-old ABCR knockout mice, 40 mg/kg/day for one month): 40-50%
Effect on dark adaptation when administered [1]: delayed dark adaptation

Compound: CCCCCCCCCCC(=O)/C=C(\C)CC/C=C(\C)CCC=C(C)C [TDT, (12E,16E)-13,17,21-trimethyldocosa-12,16,20-trien-11-one]
Decrease in A2E formation compared to control ABCR knockout mice (ABCR knockout mice; [9]): 50-85%
Effect on dark adaptation when administered [1]: delayed dark adaptation

Compound: CC1=C(/C=C/C(C)=C/C=C/C(C)=C/CN)C(C)(C)CCC1 [Ret-NH2, All-trans-retinylamine]
Decrease in A2E formation compared to control ABCA4 knockout mice (ABCR knockout mice; 1-month-old ABCA4 knockout mice, 40 mg/kg bi-weekly for two months): about 50%
Effect on dark adaptation when administered [1]: severe delayed dark adaptation

Compound: [2H]C([2H])([2H])C(/C=C/C=C(C)/C=C/C1=C(C)CCCC1(C)C)=C\COC(C)=O [C20-D3-all-trans-retinol acetate]
Less A2E-lipofuscin compared to mice on a diet of all-trans-retinol acetate (ABCR−/− mice [2]): 44-58%
Electron dense (lipofuscin) bodies in the RPE versus retinol acetate diet (ABCR−/− mice [3]): less electron dense lipofuscin deposits; also recorded: considerably less electron dense bodies
Lipofuscin pigments extracted from eyecups (HPLC) (ABCR−/− mice [4]): undetectable

Hydrogen deuterium exchange during the reaction [5]: not observed
Compound: [2H]C([2H])([2H])C(/C=C/C=C(C)/C=C/C1=C(C)CCCC1(C)C)=C\C=O [C20-D3-all-trans-retinal]
Less A2E-lipofuscin compared to mice administered all-trans-retinal (CD-1 (ICR) mice): 68%
Less A2E-lipofuscin than animals receiving all-trans-retinal (CD IGS rats; 3 mg IP bi- or tri-weekly for 8 weeks, given instead of all-trans-retinal): 35%
Total A2E-lipofuscin versus retinal group (FIG. 7A, in words) (CD IGS rats): less A2E-lipofuscin

Compound: all-trans-retinol acetate
Lipofuscin pigments extracted from eyecups (HPLC) (ABCR−/− mice [4]): detectable
Lipofuscin pigments extracted from eyecups (HPLC) (ABCR−/− mice [4]; listed as retinol acetate): considerable accumulation of lipofuscin pigments

Compound: CC(C=CC1=C(C)CCCC1(C)C)=CC=CC(=CC=O)C(F)(F)F [C20-F3-all-trans-retinal]
Formation of A2E [6]: eliminated

Compound: CC1=C(/C=C/C(C)=C/C=C/C(C)=C/C=O)C(C)(C)CCC1 [all-trans-retinal]
Total A2E, HPLC peak area at 445 nm, normalized (CD IGS rats; FIG. 7A, three female rats per group): 100%

Compound: CCCCCCCCCCCCCCCCNC/C=C(\C)CC/C=C(\C)CCC=C(C)C [TDH, (2E,6E)-N-hexadecyl-3,7,11-trimethyldodeca-2,6,10-trienamine]
Decrease in A2E formation compared to control ABCR knockout mice (ABCR knockout mice; [9]): about 50%
Effect on dark adaptation when administered [1]: delayed dark adaptation
Total A2E-lipofuscin versus retinal group (FIG. 7A, in words) (CD IGS rats): less A2E-lipofuscin
Less A2E-lipofuscin compared to animals administered only all-trans-retinal (CD IGS rats): 31%

Compound: CC1=C(/C=C/C(C)=C/C=C/C(C)=C/C(=O)Nc2ccc(O)cc2)C(C)(C)CCC1 [Fenretinide, N-(4-hydroxyphenyl)retinamide]
Patients with mild to moderate adverse effects possibly linked to the drug (patients [7]; 45 patients): 95%
Grade 2 toxicities reported as possibly linked to treatment (patients [7]): seizures and confusion
Decrease in A2E formation compared to control ABCA4 knockout mice (ABCR knockout mice; 2-month-old ABCA4 knockout mice, 20 mg/kg/day for one month): 40-50%
Effect on dark adaptation when administered [1]: delayed dark adaptation
Total A2E-lipofuscin versus retinal group (FIG. 7A, in words) (CD IGS rats): less A2E-lipofuscin
Less A2E-lipofuscin compared to animals administered only all-trans-retinal (CD IGS rats): 49%
Dermatologic disorders, incidence (patients [8]): 16%
Diminished dark adaptation, cumulative incidence (patients [8]): 16%
Disorders of the ocular surface, incidence (patients [8]): 8%
Gastrointestinal symptoms, incidence (patients [8]): 8%
